Reference: US8299046B2, “Synthetic triterpenoids and tricyclic-bis-enones for use in stimulating bone and cartilage growth” (Trustees of Dartmouth College, priority 2006, dated 2012)

What was measured:
[1] = tested on: MCF-7 breast cancer cell lines; conditions: Honda et al., 2003; cited from earlier work
[2] = tested on: SZP synthesis in superficial zone articular chondrocytes; test: Bovine calf stifle joint SZP assay; assay type: cell-based; conditions: for SZP synthesis at lower concentrations: 0.01 to 1 nM; for SZP synthesis at higher concentrations / SZP synthesis at higher concentrations with concurrent TGF-β1: 100-1000 nM; for SZP synthesis at higher concentrations: Day 3 culture media; for SZP synthesis at higher concentrations with concurrent TGF-β1: concurrent TGF-β1 (4 pM)
Experimental: Bovine calf stifle joint SZP assay. Bovine calf stifle joints were dissected under aseptic conditions. The superficial zone of articular cartilage of femoral condyles (approximately 100 μm thickness) was harvested using a dermatome. The cartilage slices were digested with 0.2% collagenase P in culture medium. Isolated chondrocytes were plated in monolayer at a density of 1×10^5 cells/well (approximately 2.5×10^4 cells/cm^2) in 12-well culture plates and incubated at 37° C. in a moist atmosphere of 5% carbon dioxide and 95% air. Chondrocytes were cultured in D-MEM/F-12 containing 10% fetal bovine serum over night, and then the media were changed in serum-free D-MEM/F-12 supplemented with ITSL (insulin, transferrin, selenious acid, and linoleic acid). Both media contain 100 U/ml penicillin, 100 μg/ml streptomycin, 50 μg/ml ascorbate-2-phosphate, and 0.1% bovine serum albumin. After changing the media with serum into the serum-free chemically defined media, various concentration of synthetic triterpenoids were added into the cell culture. As most of SZP is secreted into the culture medium, supernatants were harvested as samples and the SZP synthesis was analyzed by SDS-PAGE and Western blotting using a monoclonal antibody S6.79, obtained from Rush Medical College, Chicago, Ill. SZP accumulation into the culture medium was also quantified by ELISA using purified SZP as standard. The accumulation of SZP into the culture media increased in a time-dependent manner (Day 1<Day 2<Day 3). Therefore the culture of media of Day 3 was used for all the studies.

[3] = tested on: neonatal murine calvarial bones; test: Neonatal murine calvarial bone formation assay; assay type: cell-based, ICR Swiss mice; conditions: for alkaline phosphatase in the calvarial culture media: 4 and 7 days (FIGS. 2, 5, 8, 11); for cartilage formation: calvarial cultures, 7 days (FIGS. 3, 6, 9, 12); for new bone formation: calvarial organ culture, 7 days, 40, 200, 1000 nM (FIGS. 1, 4, 10)
Experimental: Neonatal murine calvarial bone formation assay. The technique for studying organ cultures of neonatal murine calvarial bones has been described in detail previously (Traianedes et al., 1999, Mundy et al., 1999). The bones were removed from the calvaria of 4-5 day old ICR Swiss mice, and then cultured in BGJ medium with 0.1% BSA for 7 Days using 4 calvarial bones per group triterpenoids in differing amounts were added for 7 days. Alkaline phosphatase was determined at 4 and 7 days and expressed as arbitrary units of alkaline phosphatase activity. At the end of the experiment the media was saved and assayed for the presence of alkaline phosphatase and the calvaria bones were then fixed overnight in 10% formalin, decalcified in 14% EDTA overnight and were then embedded in paraffin wax. Sections were cut, using a standard microtome, along the midline suture to reveal the sagittal suture and the region posterior to this suture. Four micrometer sections were taken initially and at two sequential […] depths. Sections were placed on coated glass slides (Superfrost plus, Fisher Scientific, Pittsburgh, Pa.) and stained with hematoxylin and eosin. The effects on bone formation were evaluated by morphologic assessment.
Imaging. Digital images across sections of the neonatal murine calvaria were taken from each group. Histomorphometric analysis was performed on these calvarial images using the Osteomeasure System (Osteometrics Inc., Atlanta, Ga.). The total and new bone area (expressed as mm^2×10^−3) was determined on all images across the calvarial section.

heme oxygenase-1 [4] = conditions: Liby et al., 2005; cited from earlier work
RAW cells = test: Inhibition of NO production in RAW cells; assay type: cell-based
[5] = tested on: RMPI 8226 human myeloma cells; test: Proliferation of RMPI 8226 myeloma cells; assay type: cell-based
[6] = tested on: U937 human leukemia cells; test: Proliferation of U937 leukemia cells; assay type: cell-based
[7] = tested on: heme oxygenase-1 in U937 cells; test: Heme oxygenase-1 induction in U937 cells; assay type: cell-based, human
heme oxygenase-1 [8] = test: In vivo assay of heme oxygenase-1 induction
[9] = tested on: CD11b expression in U937 cells; test: CD11b expression in U937 cells; assay type: cell-based, human
iNOS in RAW cells = iNOS in RAW cells stimulated with interferon-γ; assay type: cell-based

Row | Compound | alkaline phosphatase in the calvarial culture media [3] | cartilage formation [3] | SZP synthesis at lower concentrations [2] | SZP synthesis at higher concentrations [2] | SZP synthesis at higher concentrations with concurrent TGF-β1 [2] | new bone formation [3] | also measured
1 | CC1(C)C(=O)C(C#N)=C[C@]2(C)C3=CC(=O)C(C#N)=C[C@]3(C)CC[C@@H]12 [(−)-TBE-9] |  |  |  |  |  |  | activity against MCF-7 cell lines [1]: active
2 | TGF-β1: Recombinant human TGF-β1 |  |  |  |  |  |  | SZP synthesis (TGF-β1) ([2]; 0.4-120 pM): up-regulate SZP synthesis in a dose-dependent manner
3 | CC1(C)CC[C@]2(C(=O)n3ccnc3)CC[C@]3(C)[C@H](C(=O)C=C4[C@@]5(C)C=C(C#N)C(=O)C(C)(C)[C@@H]5CC[C@]43C)[C@@H]2C1 [TP-235] | no convincing change | No evidence of cartilage formation | no obvious effects | down-regulated SZP synthesis in a dose-dependent manner | the same trend |  | new bone formation at 40 nM ([3]; at 40 nM, 7 days (FIG. 7)): Significant increase; potency in heme oxygenase-1 induction assay (literature) (heme oxygenase-1 [4]): highest potency amongst semi-synthetic triterpenoids
4 | CC1(C)CC[C@]2(C(=O)O)CC[C@]3(C)[C@H](C(=O)C=C4[C@@]5(C)C=C(C#N)C(=O)C(C)(C)[C@@H]5CC[C@]43C)[C@@H]2C1 [TP-151, 2-cyano-3,12-dioxooleane-1,9(11)-dien-28-oic acid] | increases | No evidence of cartilage formation | up-regulated SZP synthesis | down-regulated SZP synthesis in a dose-dependent manner | the same trend | Significant increase | 
5 | CC1(C)C(=O)C(C#N)=CC2(C)C3=CC(=O)C(C#N)=C(C#C[Si](C)(C)C)C3CCC12 (racemic) [TBE-31] |  |  |  |  |  |  | potency for inhibition of NO production in RAW cells (RAW cells): extremely potent at one nanomolar concentrations; potency for NO inhibition in RAW cells compared with CDDO and TP-225 (RAW cells; comparison): much higher than CDDO and equal to TP-225; proliferation of RMPI 8226 human myeloma cells [5]: inhibits proliferation; proliferation of U937 human leukemia cells [6]: inhibits proliferation; induction of heme oxygenase-1 in U937 cells [7]: potent inducer; potency in heme oxygenase-1 induction compared with CDDO and CDDO-Im (heme oxygenase-1 [8]; comparison): much higher than CDDO and equal to CDDO-Im; in vivo heme oxygenase-1 induction (heme oxygenase-1 [8]; oral): orally active; CD11b expression in U937 cells [9]: induces CD11b expression; potency for CD11b induction compared with CDDO and CDDO-Im ([9]; comparison): much higher than CDDO and CDDO-Im; iNOS in RAW cells (iNOS in RAW cells): inhibits iNOS
6 | CCNC(=O)[C@]12CCC(C)(C)C[C@H]1[C@H]1C(=O)C=C3[C@@]4(C)C=C(C#N)C(=O)C(C)(C)[C@@H]4CC[C@@]3(C)[C@]1(C)CC2 [TP-319] | dose responsive increases | clear evidence increases in cartilage formation | no obvious effects | down-regulated SZP synthesis in a dose-dependent manner | the same trend | Some increases | 
7 | COC(=O)[C@]12CCC(C)(C)C[C@H]1[C@H]1C(=O)C=C3[C@@]4(C)C=C(C#N)C(=O)C(C)(C)[C@@H]4CC[C@@]3(C)[C@]1(C)CC2 [TP-155] | increases | Some evidence of cartilage formation was seen in these cultures (FIG. 3) however this was not significant | up-regulated SZP synthesis | down-regulated SZP synthesis in a dose-dependent manner | the same trend | Significant increase | 
